# Assay results: US20220340685A1, “COMBINATION THERAPY WITH ENTPD2 AND CD73 ANTIBODIES” (Novartis AG, priority 2019, published 2022)
# Test system: human ENTPD2 engineered B16LM3 clone B5
# Assay: Human ENTPD2 engineered B16LM3 clone B5 model, combination with A2AR antagonist NIR178
# Type: in vivo
# Settings: NIR178 p.o. 4 days on and 3 days off, 50 or 200 mg/kg; antibody or isotype 10 mg/kg i.v. day 1
# Experimental: Human ENTPD2-engineered B16LM3 clone B5 was established in female C57BL/6 mice by subcutaneous injection of 0.5×10^6 cells into the right flank of each mouse. Once tumors reached approximately 50 mm^3, mice were randomized according to tumor volume into treatment groups (n=8 per group). Mice received an intravenous (i.v.) treatment of either anti-ENTPD2 mAb1 at a final dose of 10/mg/kg or a non-specific human IgG1 isotype control 10 mg/kg on day 1 of study. NIR178 was administered per os (p.o.) for 4 days on and 3 days off, starting at the beginning of study at either 50 mg/kg or 200 mg/kg. All doses were adjusted to individual mouse body weights. The study was carried out for thirteen days post treatment initiation and tumor volumes were assessed every other day to assess efficacy.
structure (smiles),measurement,value
"Nc1nc(-n2cccn2)nc(-n2cccn2)c1Br [NIR178, 5-bromo-2,6-di-(1H-pyrazol-1-yl)pyrimidine-4-amine]",anti-tumor efficacy,No significant anti-tumor efficacy
